In patent publication US20260193226A1, “MICROBIOCIDAL TETRAHYDROISOQUINOLINE DERIVATIVES” (SYNGENTA CROP PROTECTION AG, priority 2022, published 2026):

How the values were obtained:
[1] = test system: Mycosphaerella graminicola (Septoria tritici); experiment: Mycosphaerella graminicola (Septoria tritici) / liquid culture (Septoria blotch); type: cell-based; details: Zymoseptoria tritici, compared to untreated control
Procedure: (§1) Example B15: Mycosphaerella graminicola (Septoria tritici)/Liquid Culture (Septoria Blotch) Conidia of the fungus from cryogenic storage are directly mixed into nutrient broth (PDB potato dextrose broth). After placing a (DMSO) solution of test compound into a microtiter plate (96-well format), the nutrient broth containing the fungal spores is added. The test plates are incubated at 24° C. and the inhibition of growth is determined photometrically 4 to 5 days after application.

[2] = test system: Gibberella zeae (Fusarium graminearum); type: in vivo; details: 200 ppm; wheat spikelet preventative; compared to untreated control
[3] = test system: Pyrenophora teres; experiment: Pyrenophora teres / barley / leaf disc preventative (net blotch); type: in vivo; details: foliar, compared to untreated control
Procedure: Example B12: Pyrenophora teres/Barley/Leaf Disc Preventative (Net Blotch) Barley leaf segments cv. Hasso are placed on agar in a multiwell plate (24-well format) and sprayed with the formulated test compound diluted in water. The leaf segments are inoculated with a spore suspension of the fungus 2 days after application. The inoculated leaf segments are incubated at 20° C. and 65% rh under a light regime of 12 h light/12 h darkness in a climate cabinet and the activity of a compound is assessed as disease control compared to untreated when an appropriate level of disease damage appears in untreated check leaf segments (5 to 7 days after application).

[4] = test system: Glomerella lagenarium (Colletotrichum lagenarium); experiment: Glomerella lagenarium (Colletotrichum lagenarium) / liquid culture (anthracnose); type: cell-based; details: Colletotrichum orbiculare, compared to untreated control
Procedure: as §1, with “B3: Glomerella lagenarium (Colletotrichum lagenarium)/Liquid” for “B15: Mycosphaerella graminicola (Septoria tritici)/Liquid”, “(Anthracnose)” for “(Septoria Blotch)”, “measured” for “determined”, “photometrically 3 to” for “photometrically”, “4” for “4 to 5”

[5] = test system: Mycosphaerella arachidis (Cercospora arachidicola); experiment: Mycosphaerella arachidis (Cercospora arachidicola) / liquid culture (early leaf spot); type: cell-based; details: compared to untreated control
Procedure: as §1, with “B9:” for “B15:”, “arachidis (Cercospora arachidicola)/Liquid” for “graminicola (Septoria tritici)/Liquid”, “(Early Leaf Spot)” for “(Septoria Blotch)”

[6] = test system: Alternaria solani; experiment: Alternaria solani / tomato / leaf disc (early blight); type: in vivo; details: foliar, compared to untreated control
Procedure: Example B1: Alternaria solani/Tomato/Leaf Disc (Early Blight) Tomato leaf disks cv. Baby are placed on agar in multiwell plates (24-well format) and sprayed with the formulated test compound diluted in water. The leaf disks are inoculated with a spore suspension of the fungus 2 days after application. The inoculated leaf disks are incubated at 23° C./21° C.

[7] = test system: Monographella nivalis (Microdochium nivale); experiment: Monographella nivalis (Microdochium nivale) / liquid culture (foot rot cereals); type: cell-based; details: compared to untreated control
Procedure: as §1, with “B8: Monographella nivalis (Microdochium nivale)/Liquid” for “B15: Mycosphaerella graminicola (Septoria tritici)/Liquid”, “(Foot Rot Cereals)” for “(Septoria Blotch)”

[8] = test system: Pythium ultimum; experiment: Pythium ultimum / liquid culture (seedling damping off); type: cell-based; details: 20 ppm, compared to untreated control
Procedure: Example B13: Pythium ultimum/Liquid Culture (Seedling Damping Off) Mycelia fragments and oospores of a newly grown liquid culture of the fungus are directly mixed into nutrient broth (PDB potato dextrose broth). After placing a (DMSO) solution of test compound into a microtiter plate (96-well format), the nutrient broth containing the fungal mycelia/spore mixture is added. The test plates are incubated at 24° C. and the inhibition of growth is determined photometrically 2 to 3 days after application.

| Compound | inhibition of growth at 20 ppm [1] [%] | control of Gibberella zeae [2] | pest or weed control at 200 ppm [3] [%] | inhibition of growth at 20 ppm [4] [%] | inhibition of growth at 20 ppm [5] [%] | pest or weed control at 200 ppm [6] [%] | inhibition of growth at 20 ppm [7] [%] | control of Pythium ultimum [8] |
| --- | --- | --- | --- | --- | --- | --- | --- | --- |
| Cc1c([C@H]2CN(C(=O)CCCCCC(F)F)[C@@H](C)c3ccccc32)cnn1C [Compound P-46, 1-[(1S,4S)-4-(1,5-dimethylpyrazol-4-yl)-1-methyl-3,4-dihydro-1H-isoquinolin-2-yl]-7,7-difluoro-heptan-1-one] | ≥ 80 | at least 80% | ≥ 80 | ≥ 80 | ≥ 80 | ≥ 80 | ≥ 80 | – |
| Cc1c(C2CN(C(=O)CCc3ccc(F)cc3F)Cc3ccccc32)cnn1C (stereo not drawn) [Compound P-6, 3-(2,4-difluorophenyl)-1-[4-(1,5-dimethylpyrazol-4-yl)-3,4-dihydro-1H-isoquinolin-2-yl]propan-1-one] | ≥ 80 | – | ≥ 80 | – | ≥ 80 | ≥ 80 | – | at least 80% |
